Data as given in PubChem BioAssay (NCI).
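Five concentrations, 48 hours, 96-well plates. TGI denotes the concentration required for complete inhibition of growth.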

Columns and labels:
Experiment in all cases: NCI tumour cell line growth inhibition, 48 h
NCI-H226 lung = test system: NCI-H226 lung
LXFL 529 NSCLC = test system: LXFL 529 NSCLC
OVCAR-3 ovarian = test system: OVCAR-3 ovarian
OVCAR-8 ovarian = test system: OVCAR-8 ovarian
U251 CNS = test system: U251 CNS
CCRF-CEM leukemia = test system: CCRF-CEM leukemia
HOP-18 NSCLC = test system: HOP-18 NSCLC
ACHN renal = test system: ACHN renal
SNB-78 CNS = test system: SNB-78 CNS
NCI-H522 lung = test system: NCI-H522 lung
SK-MEL-2 melanoma = test system: SK-MEL-2 melanoma
TK-10 renal = test system: TK-10 renal
HOP-62 NSCLC = test system: HOP-62 NSCLC
HT29 colon = test system: HT29 colon
MALME-3M melanoma = test system: MALME-3M melanoma
SW-620 colon = test system: SW-620 colon
M14 melanoma = test system: M14 melanoma
KM12 colon = test system: KM12 colon
RXF-631 renal = test system: RXF-631 renal
HCC-2998 colon = test system: HCC-2998 colon
HCT-15 colon = test system: HCT-15 colon
SR leukemia = test system: SR leukemia
SK-OV-3 ovarian = test system: SK-OV-3 ovarian
HL-60(TB) leukemia = test system: HL-60(TB) leukemia
A549 NSCLC = test system: A549 NSCLC
OVCAR-4 ovarian = test system: OVCAR-4 ovarian
DLD-1 colon = test system: DLD-1 colon
UO-31 renal = test system: UO-31 renal
HOP-92 NSCLC = test system: HOP-92 NSCLC
DMS 114 small cell lung = test system: DMS 114 small cell lung
CAKI-1 renal = test system: CAKI-1 renal
UACC-257 melanoma = test system: UACC-257 melanoma
UACC-62 melanoma = test system: UACC-62 melanoma
HCT-116 colon = test system: HCT-116 colon
EKVX NSCLC = test system: EKVX NSCLC
SK-MEL-5 melanoma = test system: SK-MEL-5 melanoma
SNB-19 CNS = test system: SNB-19 CNS
786-0 renal = test system: 786-0 renal
SK-MEL-28 melanoma = test system: SK-MEL-28 melanoma
NCI-H460 lung = test system: NCI-H460 lung
SN12C renal = test system: SN12C renal
RXF 393 renal = test system: RXF 393 renal
M19-MEL melanoma = test system: M19-MEL melanoma
SF-268 CNS = test system: SF-268 CNS
SNB-75 CNS = test system: SNB-75 CNS
IGROV1 ovarian = test system: IGROV1 ovarian
NCI-H23 lung = test system: NCI-H23 lung
A498 renal = test system: A498 renal
DMS 273 small cell lung = test system: DMS 273 small cell lung
SF-539 CNS = test system: SF-539 CNS
KM20L2 colon = test system: KM20L2 colon
COLO 205 colon = test system: COLO 205 colon
MOLT-4 leukemia = test system: MOLT-4 leukemia
SF-295 CNS = test system: SF-295 CNS
RPMI-8226 leukemia = test system: RPMI-8226 leukemia
XF 498 CNS = test system: XF 498 CNS
LOX IMVI melanoma = test system: LOX IMVI melanoma
OVCAR-5 ovarian = test system: OVCAR-5 ovarian
K-562 leukemia = test system: K-562 leukemia

CC(C)c1cccc2sc(NC(=O)C(=O)C(C#N)c3cccc4ccccc34)nc12 (stereo not drawn)
TGI (NCI-H226 lung): > 100 µM
TGI (LXFL 529 NSCLC): > 100 µM
TGI (OVCAR-3 ovarian): > 100 µM
TGI (OVCAR-8 ovarian): > 100 µM
TGI (U251 CNS): > 100 µM
TGI (CCRF-CEM leukemia): > 100 µM
TGI (HOP-18 NSCLC): > 100 µM
TGI (ACHN renal): > 100 µM
TGI (SNB-78 CNS): > 100 µM
TGI (NCI-H522 lung): > 100 µM
TGI (SK-MEL-2 melanoma): > 100 µM
TGI (TK-10 renal): > 100 µM
TGI (HOP-62 NSCLC): > 100 µM
TGI (HT29 colon): > 100 µM
TGI (MALME-3M melanoma): > 100 µM
TGI (SW-620 colon): > 100 µM
TGI (M14 melanoma): > 100 µM
TGI (KM12 colon): > 100 µM
TGI (RXF-631 renal): > 100 µM
TGI (HCC-2998 colon): > 100 µM
TGI (HCT-15 colon): > 100 µM
TGI (SR leukemia): > 100 µM
TGI (SK-OV-3 ovarian): > 100 µM
TGI (HL-60(TB) leukemia): > 100 µM
TGI (A549 NSCLC): > 100 µM
TGI (OVCAR-4 ovarian): > 100 µM
TGI (DLD-1 colon): > 100 µM
TGI (UO-31 renal): > 100 µM
TGI (HOP-92 NSCLC): 97.9 µM
TGI (DMS 114 small cell lung): > 100 µM
TGI (CAKI-1 renal): > 100 µM
TGI (UACC-257 melanoma): > 100 µM
TGI (UACC-62 melanoma): > 100 µM
TGI (HCT-116 colon): > 100 µM
TGI (EKVX NSCLC): 67.2 µM
TGI (SK-MEL-5 melanoma): > 100 µM
TGI (SNB-19 CNS): > 100 µM
TGI (786-0 renal): > 100 µM
TGI (SK-MEL-28 melanoma): > 100 µM
TGI (NCI-H460 lung): > 100 µM
TGI (SN12C renal): > 100 µM
TGI (RXF 393 renal): 92.3 µM
TGI (M19-MEL melanoma): > 100 µM
TGI (SF-268 CNS): > 100 µM
TGI (SNB-75 CNS): 95.4 µM
TGI (IGROV1 ovarian): > 100 µM
TGI (NCI-H23 lung): > 100 µM
TGI (A498 renal): > 100 µM
TGI (DMS 273 small cell lung): > 100 µM
TGI (SF-539 CNS): > 100 µM
TGI (KM20L2 colon): > 100 µM
TGI (COLO 205 colon): > 100 µM
TGI (MOLT-4 leukemia): > 100 µM
TGI (SF-295 CNS): > 100 µM

[N-]=[N+]=NC(CI)c1cn([C@H]2C[C@H](O)[C@@H](CO)O2)c(=O)[nH]c1=O (stereo partly drawn)
TGI (NCI-H226 lung): > 100 µM
TGI (LXFL 529 NSCLC): > 100 µM
TGI (OVCAR-3 ovarian): > 100 µM
TGI (OVCAR-8 ovarian): > 100 µM
TGI (U251 CNS): > 100 µM
TGI (CCRF-CEM leukemia): > 100 µM
TGI (HOP-18 NSCLC): > 100 µM
TGI (ACHN renal): > 100 µM
TGI (SNB-78 CNS): > 100 µM
TGI (NCI-H522 lung): > 100 µM
TGI (SK-MEL-2 melanoma): > 100 µM
TGI (TK-10 renal): > 100 µM
TGI (HOP-62 NSCLC): > 100 µM
TGI (HT29 colon): > 100 µM
TGI (MALME-3M melanoma): > 100 µM
TGI (SW-620 colon): > 100 µM
TGI (RPMI-8226 leukemia): > 100 µM
TGI (M14 melanoma): > 100 µM
TGI (KM12 colon): > 100 µM
TGI (HCC-2998 colon): > 100 µM
TGI (HCT-15 colon): > 100 µM
TGI (XF 498 CNS): > 100 µM
TGI (SR leukemia): > 100 µM
TGI (SK-OV-3 ovarian): > 100 µM
TGI (HL-60(TB) leukemia): > 100 µM
TGI (A549 NSCLC): > 100 µM
TGI (DLD-1 colon): > 100 µM
TGI (UO-31 renal): > 100 µM
TGI (HOP-92 NSCLC): > 100 µM
TGI (DMS 114 small cell lung): > 100 µM
TGI (CAKI-1 renal): > 100 µM
TGI (UACC-62 melanoma): > 100 µM
TGI (HCT-116 colon): > 100 µM
TGI (EKVX NSCLC): > 100 µM
TGI (SK-MEL-5 melanoma): > 100 µM
TGI (SNB-19 CNS): > 100 µM
TGI (LOX IMVI melanoma): > 100 µM
TGI (786-0 renal): > 100 µM
TGI (SK-MEL-28 melanoma): > 100 µM
TGI (NCI-H460 lung): > 100 µM
TGI (SN12C renal): > 100 µM
TGI (RXF 393 renal): > 100 µM
TGI (M19-MEL melanoma): > 100 µM
TGI (SNB-75 CNS): > 100 µM
TGI (IGROV1 ovarian): > 100 µM
TGI (NCI-H23 lung): > 100 µM
TGI (OVCAR-5 ovarian): > 100 µM
TGI (K-562 leukemia): > 100 µM
TGI (DMS 273 small cell lung): > 100 µM
TGI (SF-539 CNS): > 100 µM
TGI (KM20L2 colon): > 100 µM
TGI (COLO 205 colon): > 100 µM
TGI (MOLT-4 leukemia): > 100 µM
TGI (SF-295 CNS): > 100 µM
